Assay [1] concerns the target Tyrosine-protein kinase JAK2 (Homo sapiens, UniProt O60674). The conditions noted are these: at 1 µM.
The target in assay [2] is Tyrosine-protein kinase ABL1 (Homo sapiens, UniProt P00519). The conditions noted are these: at 1 µM.
Assay [3] deals with T1, Gamma-aminobutyric acid receptor subunit alpha-1 (Homo sapiens, UniProt P14867).
T1 sequence (P14867 whole entry): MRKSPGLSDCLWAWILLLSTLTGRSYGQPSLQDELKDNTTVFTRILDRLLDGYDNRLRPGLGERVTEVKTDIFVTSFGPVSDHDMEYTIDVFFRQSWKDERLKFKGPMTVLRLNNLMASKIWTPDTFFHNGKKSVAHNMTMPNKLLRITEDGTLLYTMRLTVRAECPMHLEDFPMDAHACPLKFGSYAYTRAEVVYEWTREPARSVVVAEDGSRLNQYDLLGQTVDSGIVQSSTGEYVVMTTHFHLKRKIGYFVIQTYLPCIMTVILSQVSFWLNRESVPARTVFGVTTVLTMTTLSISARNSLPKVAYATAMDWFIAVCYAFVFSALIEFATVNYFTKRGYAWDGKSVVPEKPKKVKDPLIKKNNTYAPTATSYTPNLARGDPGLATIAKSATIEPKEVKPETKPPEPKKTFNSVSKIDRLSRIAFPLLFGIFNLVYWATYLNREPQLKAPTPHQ
The assay can be described thus: Selectivity interaction (GPCR panel (PDSP screen)) EUB0000739a GABRA1.

Assay [4] has as its target T2, Alpha-1B adrenergic receptor (Homo sapiens, UniProt P35368).
T2 sequence (P35368 whole entry): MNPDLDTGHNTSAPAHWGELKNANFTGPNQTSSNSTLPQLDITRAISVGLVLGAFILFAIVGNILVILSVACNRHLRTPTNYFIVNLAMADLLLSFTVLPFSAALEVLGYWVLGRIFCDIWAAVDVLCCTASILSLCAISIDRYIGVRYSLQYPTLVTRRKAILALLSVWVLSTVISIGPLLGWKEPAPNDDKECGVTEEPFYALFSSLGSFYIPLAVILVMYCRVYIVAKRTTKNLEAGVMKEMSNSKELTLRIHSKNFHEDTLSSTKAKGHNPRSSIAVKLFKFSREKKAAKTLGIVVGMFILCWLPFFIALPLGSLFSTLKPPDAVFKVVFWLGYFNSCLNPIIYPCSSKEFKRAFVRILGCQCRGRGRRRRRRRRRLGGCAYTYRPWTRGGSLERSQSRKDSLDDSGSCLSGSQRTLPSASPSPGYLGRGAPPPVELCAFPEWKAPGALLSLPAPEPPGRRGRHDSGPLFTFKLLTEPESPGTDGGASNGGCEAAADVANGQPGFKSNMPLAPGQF
The assay is described as follows: Selectivity interaction (GPCR panel (PDSP screen)) EUB0000739a ADRA1B.

In assay [5] the target is High affinity nerve growth factor receptor (Homo sapiens, UniProt P04629). The assay is described as follows: Selectivity interaction (KinomeScan (DiscoverX, competition-binding assay)).
The target of assay [6] is T3, Sodium/nucleoside cotransporter 2 (Homo sapiens, UniProt O43868).
T3 sequence (O43868 whole entry): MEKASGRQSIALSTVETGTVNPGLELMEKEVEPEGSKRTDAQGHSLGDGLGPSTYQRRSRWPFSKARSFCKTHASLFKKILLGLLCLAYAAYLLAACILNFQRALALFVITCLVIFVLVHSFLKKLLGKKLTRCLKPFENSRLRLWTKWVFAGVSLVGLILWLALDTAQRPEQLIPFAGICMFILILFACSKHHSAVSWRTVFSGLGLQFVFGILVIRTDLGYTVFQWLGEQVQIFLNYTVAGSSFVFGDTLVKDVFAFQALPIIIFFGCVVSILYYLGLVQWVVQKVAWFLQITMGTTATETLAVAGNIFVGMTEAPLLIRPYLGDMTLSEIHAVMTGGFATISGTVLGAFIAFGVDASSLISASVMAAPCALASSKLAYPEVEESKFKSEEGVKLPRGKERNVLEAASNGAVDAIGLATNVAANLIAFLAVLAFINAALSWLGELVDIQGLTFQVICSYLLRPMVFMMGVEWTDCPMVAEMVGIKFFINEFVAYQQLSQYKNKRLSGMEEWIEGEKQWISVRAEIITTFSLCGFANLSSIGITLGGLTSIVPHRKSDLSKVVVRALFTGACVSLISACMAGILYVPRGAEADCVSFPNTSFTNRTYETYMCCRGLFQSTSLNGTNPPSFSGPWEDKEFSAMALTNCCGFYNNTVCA
The assay is described as follows: Selectivity interaction (Enzymatic assay (PanLabs Profiling)) EUB0000715a SLC28A2.

For assay [7], the target named is T4, Tyrosine-protein kinase JAK3 (Homo sapiens) (UniProt P52333).
T4 sequence (whole entry): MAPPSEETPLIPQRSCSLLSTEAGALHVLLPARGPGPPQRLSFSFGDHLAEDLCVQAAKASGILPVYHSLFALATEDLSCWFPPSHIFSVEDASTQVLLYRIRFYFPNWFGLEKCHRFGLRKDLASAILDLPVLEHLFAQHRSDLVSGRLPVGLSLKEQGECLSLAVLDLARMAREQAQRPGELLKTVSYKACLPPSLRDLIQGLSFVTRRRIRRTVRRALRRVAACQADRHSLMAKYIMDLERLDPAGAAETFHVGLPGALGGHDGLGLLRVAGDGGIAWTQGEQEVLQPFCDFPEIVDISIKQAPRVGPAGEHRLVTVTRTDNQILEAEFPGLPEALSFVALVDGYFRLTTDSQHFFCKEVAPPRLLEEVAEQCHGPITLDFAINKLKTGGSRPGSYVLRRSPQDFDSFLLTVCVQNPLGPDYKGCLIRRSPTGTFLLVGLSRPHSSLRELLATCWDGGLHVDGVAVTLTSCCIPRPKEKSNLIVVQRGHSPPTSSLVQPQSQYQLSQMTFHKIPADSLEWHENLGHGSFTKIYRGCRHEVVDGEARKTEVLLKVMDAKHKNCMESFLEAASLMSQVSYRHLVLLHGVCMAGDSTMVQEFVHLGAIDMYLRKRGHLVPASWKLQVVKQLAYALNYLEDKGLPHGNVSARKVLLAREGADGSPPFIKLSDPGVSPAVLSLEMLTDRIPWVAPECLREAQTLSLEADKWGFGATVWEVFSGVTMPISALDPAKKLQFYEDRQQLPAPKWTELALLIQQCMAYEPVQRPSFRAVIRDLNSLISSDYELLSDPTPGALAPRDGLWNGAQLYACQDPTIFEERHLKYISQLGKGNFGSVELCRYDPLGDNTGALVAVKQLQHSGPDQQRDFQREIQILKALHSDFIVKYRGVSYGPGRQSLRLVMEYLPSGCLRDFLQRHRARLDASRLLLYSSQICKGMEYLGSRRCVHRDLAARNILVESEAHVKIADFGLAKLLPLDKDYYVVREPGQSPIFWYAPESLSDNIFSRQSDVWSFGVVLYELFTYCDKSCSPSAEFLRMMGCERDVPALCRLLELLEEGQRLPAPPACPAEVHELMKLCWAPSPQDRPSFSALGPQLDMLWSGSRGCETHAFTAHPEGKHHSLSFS
The assay can be described thus: Selectivity interaction (KinomeScan (DiscoverX)) EUB0000715a JAK3. The following applies: at 100 nM.

Assay [8] concerns the target T5, Mitogen-activated protein kinase kinase kinase 13 (Homo sapiens) (UniProt O43283).
T5 sequence (whole entry): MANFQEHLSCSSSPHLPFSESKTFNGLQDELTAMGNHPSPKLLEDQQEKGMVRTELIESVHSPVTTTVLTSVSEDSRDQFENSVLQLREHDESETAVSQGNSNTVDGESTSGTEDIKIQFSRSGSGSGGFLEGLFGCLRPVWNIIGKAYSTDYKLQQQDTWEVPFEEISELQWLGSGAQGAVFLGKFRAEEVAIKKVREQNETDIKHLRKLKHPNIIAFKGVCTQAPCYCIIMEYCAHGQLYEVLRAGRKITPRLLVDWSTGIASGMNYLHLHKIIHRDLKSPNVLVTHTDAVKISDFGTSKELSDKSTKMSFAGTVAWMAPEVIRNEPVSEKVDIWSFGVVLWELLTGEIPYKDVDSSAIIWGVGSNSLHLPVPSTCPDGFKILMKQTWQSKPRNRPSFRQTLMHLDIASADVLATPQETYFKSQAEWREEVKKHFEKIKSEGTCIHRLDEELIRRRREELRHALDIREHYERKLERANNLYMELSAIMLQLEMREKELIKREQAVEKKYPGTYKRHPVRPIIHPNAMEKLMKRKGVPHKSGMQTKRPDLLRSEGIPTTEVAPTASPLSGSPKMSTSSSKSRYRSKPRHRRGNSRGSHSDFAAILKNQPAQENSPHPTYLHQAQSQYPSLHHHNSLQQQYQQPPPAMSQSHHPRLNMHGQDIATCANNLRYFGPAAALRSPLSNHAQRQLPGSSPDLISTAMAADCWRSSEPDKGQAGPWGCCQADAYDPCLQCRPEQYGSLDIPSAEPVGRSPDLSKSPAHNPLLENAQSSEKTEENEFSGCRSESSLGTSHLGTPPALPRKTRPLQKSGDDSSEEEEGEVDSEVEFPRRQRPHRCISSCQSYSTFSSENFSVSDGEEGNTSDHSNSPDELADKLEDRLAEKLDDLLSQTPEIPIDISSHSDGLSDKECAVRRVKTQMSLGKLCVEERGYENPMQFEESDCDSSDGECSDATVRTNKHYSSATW
The assay can be described thus: Selectivity interaction (KinomeScan (DiscoverX)) EUB0000715a MAP3K13. The following applies: at 100 nM.

Assay [9] concerns the target Epidermal growth factor receptor (Homo sapiens, UniProt P00533). The assay can be described thus: Selectivity interaction (KinomeScan (DiscoverX)) EUB0000715a EGFR. The conditions noted are these: at 100 nM.

Structures are written as SMILES. Where only a bound is given, the exact number is not on record here.

Chain of Tyrosine-protein kinase ABL1 (P00519 whole entry): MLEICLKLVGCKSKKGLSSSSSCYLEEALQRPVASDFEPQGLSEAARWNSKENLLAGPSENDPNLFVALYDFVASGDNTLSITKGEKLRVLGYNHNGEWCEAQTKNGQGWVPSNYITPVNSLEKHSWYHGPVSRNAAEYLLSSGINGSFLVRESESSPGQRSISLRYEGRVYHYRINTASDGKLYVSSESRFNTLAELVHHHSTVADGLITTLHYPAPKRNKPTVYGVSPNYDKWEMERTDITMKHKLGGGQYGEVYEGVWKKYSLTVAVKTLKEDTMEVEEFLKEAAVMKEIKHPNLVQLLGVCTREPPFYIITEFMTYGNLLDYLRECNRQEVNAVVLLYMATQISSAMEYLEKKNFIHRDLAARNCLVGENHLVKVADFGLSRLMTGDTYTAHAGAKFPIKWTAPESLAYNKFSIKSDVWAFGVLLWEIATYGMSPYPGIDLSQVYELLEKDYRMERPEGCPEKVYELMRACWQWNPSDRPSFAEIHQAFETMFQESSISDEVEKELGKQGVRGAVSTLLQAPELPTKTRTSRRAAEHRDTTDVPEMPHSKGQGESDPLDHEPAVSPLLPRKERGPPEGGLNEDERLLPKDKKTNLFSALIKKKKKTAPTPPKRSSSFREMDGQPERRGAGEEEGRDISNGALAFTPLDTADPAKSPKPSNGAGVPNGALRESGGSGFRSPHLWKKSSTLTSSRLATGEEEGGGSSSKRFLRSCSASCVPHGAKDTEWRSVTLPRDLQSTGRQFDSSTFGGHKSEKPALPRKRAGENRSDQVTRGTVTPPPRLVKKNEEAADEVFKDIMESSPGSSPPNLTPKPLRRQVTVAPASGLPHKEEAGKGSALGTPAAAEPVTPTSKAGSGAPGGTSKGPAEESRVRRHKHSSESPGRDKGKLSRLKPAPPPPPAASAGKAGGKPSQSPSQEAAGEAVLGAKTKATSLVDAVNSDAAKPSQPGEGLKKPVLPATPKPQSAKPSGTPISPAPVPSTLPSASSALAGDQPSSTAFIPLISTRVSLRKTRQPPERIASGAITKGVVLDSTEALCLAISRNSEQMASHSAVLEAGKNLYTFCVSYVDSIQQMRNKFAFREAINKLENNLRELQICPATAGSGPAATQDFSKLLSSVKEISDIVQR
Chain of High affinity nerve growth factor receptor (P04629 whole entry): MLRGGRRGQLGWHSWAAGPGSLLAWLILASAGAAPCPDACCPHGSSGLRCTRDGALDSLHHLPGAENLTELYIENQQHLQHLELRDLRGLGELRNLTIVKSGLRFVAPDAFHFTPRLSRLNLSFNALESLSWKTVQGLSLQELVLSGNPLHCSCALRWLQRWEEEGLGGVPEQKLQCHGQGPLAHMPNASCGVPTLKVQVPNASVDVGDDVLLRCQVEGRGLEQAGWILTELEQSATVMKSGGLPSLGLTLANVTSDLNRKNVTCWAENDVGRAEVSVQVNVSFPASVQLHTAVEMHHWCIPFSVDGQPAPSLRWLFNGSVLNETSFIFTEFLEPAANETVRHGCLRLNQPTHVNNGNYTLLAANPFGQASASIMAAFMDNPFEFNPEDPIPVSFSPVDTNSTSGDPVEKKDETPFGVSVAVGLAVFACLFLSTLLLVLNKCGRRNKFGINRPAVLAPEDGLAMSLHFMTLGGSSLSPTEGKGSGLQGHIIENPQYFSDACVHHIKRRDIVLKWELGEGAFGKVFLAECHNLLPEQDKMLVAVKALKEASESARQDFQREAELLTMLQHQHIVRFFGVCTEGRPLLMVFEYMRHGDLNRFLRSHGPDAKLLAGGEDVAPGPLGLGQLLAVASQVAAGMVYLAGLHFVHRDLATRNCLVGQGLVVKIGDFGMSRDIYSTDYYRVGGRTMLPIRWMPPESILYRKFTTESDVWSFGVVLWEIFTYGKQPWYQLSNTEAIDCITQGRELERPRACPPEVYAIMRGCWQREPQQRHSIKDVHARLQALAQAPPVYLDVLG
Chain of Tyrosine-protein kinase JAK2 (O60674 whole entry): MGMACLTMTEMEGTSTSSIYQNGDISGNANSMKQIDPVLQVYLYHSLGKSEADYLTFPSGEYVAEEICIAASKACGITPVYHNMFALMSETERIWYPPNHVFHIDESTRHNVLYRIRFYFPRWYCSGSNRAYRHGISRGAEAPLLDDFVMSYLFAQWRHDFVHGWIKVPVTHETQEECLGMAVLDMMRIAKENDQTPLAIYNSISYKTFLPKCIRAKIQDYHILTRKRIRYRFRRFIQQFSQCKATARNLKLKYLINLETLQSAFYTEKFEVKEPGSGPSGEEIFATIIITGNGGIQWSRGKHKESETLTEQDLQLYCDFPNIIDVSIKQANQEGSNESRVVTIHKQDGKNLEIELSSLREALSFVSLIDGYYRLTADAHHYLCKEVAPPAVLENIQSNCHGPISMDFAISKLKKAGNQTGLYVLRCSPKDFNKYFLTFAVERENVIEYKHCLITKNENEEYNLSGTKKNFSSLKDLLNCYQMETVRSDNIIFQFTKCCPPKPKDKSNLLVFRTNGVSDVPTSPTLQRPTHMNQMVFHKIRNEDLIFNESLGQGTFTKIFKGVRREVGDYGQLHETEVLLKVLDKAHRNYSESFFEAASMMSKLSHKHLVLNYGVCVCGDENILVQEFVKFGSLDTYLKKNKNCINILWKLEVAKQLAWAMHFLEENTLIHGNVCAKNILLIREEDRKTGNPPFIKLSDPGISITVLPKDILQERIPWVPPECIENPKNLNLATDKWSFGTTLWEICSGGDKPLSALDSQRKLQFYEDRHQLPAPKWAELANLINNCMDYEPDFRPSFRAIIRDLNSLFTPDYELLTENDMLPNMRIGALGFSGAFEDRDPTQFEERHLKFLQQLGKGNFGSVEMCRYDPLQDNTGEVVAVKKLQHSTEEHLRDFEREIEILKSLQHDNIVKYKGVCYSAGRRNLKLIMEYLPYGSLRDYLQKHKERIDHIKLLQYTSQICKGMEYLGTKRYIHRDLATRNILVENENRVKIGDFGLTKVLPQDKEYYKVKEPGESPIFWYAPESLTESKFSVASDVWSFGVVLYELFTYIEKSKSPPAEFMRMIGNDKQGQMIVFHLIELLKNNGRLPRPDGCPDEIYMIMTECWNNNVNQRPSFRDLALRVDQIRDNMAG
Chain of Epidermal growth factor receptor (P00533 whole entry): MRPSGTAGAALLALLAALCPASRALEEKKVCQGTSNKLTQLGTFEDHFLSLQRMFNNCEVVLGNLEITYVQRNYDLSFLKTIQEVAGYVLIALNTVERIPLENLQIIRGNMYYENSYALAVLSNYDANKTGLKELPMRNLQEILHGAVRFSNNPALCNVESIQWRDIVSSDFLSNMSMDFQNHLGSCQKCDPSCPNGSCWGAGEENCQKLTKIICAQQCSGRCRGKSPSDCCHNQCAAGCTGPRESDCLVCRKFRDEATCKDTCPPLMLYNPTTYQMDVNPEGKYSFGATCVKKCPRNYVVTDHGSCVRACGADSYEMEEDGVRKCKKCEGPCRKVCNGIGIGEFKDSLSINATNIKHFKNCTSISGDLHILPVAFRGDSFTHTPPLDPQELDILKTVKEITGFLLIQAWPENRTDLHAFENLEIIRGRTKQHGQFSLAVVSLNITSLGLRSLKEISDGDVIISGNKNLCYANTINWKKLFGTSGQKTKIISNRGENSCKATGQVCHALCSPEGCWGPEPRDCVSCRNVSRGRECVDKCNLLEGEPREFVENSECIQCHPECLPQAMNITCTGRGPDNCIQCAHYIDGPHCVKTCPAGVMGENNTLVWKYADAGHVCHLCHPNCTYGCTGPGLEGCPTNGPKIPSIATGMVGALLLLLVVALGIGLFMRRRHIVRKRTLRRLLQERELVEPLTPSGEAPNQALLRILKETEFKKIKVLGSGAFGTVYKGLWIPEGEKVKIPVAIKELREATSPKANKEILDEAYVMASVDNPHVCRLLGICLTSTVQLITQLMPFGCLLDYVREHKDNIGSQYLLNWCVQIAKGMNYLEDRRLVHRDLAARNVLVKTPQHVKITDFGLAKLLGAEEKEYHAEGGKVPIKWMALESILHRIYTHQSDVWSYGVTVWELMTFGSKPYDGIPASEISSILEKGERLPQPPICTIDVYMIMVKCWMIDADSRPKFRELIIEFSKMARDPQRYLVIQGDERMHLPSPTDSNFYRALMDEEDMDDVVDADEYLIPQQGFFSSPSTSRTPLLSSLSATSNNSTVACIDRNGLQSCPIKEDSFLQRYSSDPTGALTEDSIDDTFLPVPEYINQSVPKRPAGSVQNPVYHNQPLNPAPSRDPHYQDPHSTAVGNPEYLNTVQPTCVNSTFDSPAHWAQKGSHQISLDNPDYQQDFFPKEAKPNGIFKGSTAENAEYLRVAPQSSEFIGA

Turning to `COc1cc(-c2cn([C@H]3CCc4ccccc4N(CC(F)(F)F)C3=O)nn2)ccc1-n1ccc(C)n1`, the % of control in assay [1] worked out at 34%; in [2] it was 47%. The inhibition constant Ki was 5.07 µM in [3] and greater than 10 µM in assay [4].

In assay [5], `COc1ccc(COc2ccc(Cc3cnc(N)nc3N)cc2OC)cc1` [GW632580X] displayed a dissociation constant (Kd) of less than 0.1 µM.

`C[C@@H]1CN(c2cc(-c3n[nH]c4ccc(OC5(C)CC5)cc34)ncn2)C[C@H](C)O1` [MLi-2] registered a half-inhibitory concentration (IC50) in assay [6] of 9.7 µM. In addition, the % of control in assay [7] was found to be 0%; in assay [8], 0%; in assay [9] it was 43%.

The values are drawn from ChEMBL document CHEMBL5212743, “Selectivity Literature for EUbOPEN Chemogenomics Library wave 3” (2023).
